Measured values: ChEMBL document CHEMBL3751764, “Synthesis and in vitro antiproliferative activity of novel pyrazolo[3,4-d]pyrimidine derivatives” (Medchemcomm, 2015)
The source made the active and inactive calls. The calls are words filed in the database; no cut-off is given here.

How the values were obtained:
[1] = Cytotoxicity against human OVCAR4 cells assessed as cell growth at 10 uM after 72 hrs by SRB assay relative to control; format: functional; details: OVCAR-4, 72 h, read-out: Activity
U-251 = experiment: Cytotoxicity against human U251 cells assessed as cell growth at 10 uM after 72 hrs by SRB assay relative to control; format: functional; details: U-251, 72 h, read-out: Activity
[2] = Cytotoxicity against human OVCAR3 cells assessed as cell growth at 10 uM after 72 hrs by SRB assay relative to control; format: functional; details: OVCAR-3, 72 h, read-out: Activity
NCI-H226 = experiment: Cytotoxicity against human NCI-H226 cells assessed as cell growth at 10 uM after 72 hrs by SRB assay relative to control; format: functional; details: NCI-H226, 72 h, read-out: Activity
[3] = Cytotoxicity against human PC3 cells assessed as cell growth at 10 uM after 72 hrs by SRB assay relative to control; format: functional; details: PC-3, 72 h, read-out: Activity
[4] = Cytotoxicity against human UO31 cells assessed as cell growth at 10 uM after 72 hrs by SRB assay relative to control; format: functional; details: UO-31, 72 h, read-out: Activity
[5] = Cytotoxicity against human UACC62 cells assessed as cell growth at 10 uM after 72 hrs by SRB assay relative to control; format: functional; details: UACC-62, 72 h, read-out: Activity
NCI-H322M [6] = experiment: Cytotoxicity against human NCI-H322M cells assessed as cell growth at 10 uM after 72 hrs by SRB assay relative to control; format: functional; details: read-out: Activity
[7] = Cytotoxicity against human SF295 cells assessed as cell growth at 10 uM after 72 hrs by SRB assay relative to control; format: functional; details: SF-295, 72 h, read-out: Activity
A498 [8] = experiment: Cytotoxicity against human A498 cells assessed as cell growth at 10 uM after 72 hrs by SRB assay relative to control; format: functional; details: A498, 72 h, read-out: Activity
[9] = molecular target: Epidermal growth factor receptor (Homo sapiens) (UniProt P00533); experiment: Inhibition of human EGFR at 10 uM after 20 to 40 mins by liquid scintillation counting analysis in presence of […]
Epidermal growth factor receptor (Homo sapiens), sequence (P00533 whole entry): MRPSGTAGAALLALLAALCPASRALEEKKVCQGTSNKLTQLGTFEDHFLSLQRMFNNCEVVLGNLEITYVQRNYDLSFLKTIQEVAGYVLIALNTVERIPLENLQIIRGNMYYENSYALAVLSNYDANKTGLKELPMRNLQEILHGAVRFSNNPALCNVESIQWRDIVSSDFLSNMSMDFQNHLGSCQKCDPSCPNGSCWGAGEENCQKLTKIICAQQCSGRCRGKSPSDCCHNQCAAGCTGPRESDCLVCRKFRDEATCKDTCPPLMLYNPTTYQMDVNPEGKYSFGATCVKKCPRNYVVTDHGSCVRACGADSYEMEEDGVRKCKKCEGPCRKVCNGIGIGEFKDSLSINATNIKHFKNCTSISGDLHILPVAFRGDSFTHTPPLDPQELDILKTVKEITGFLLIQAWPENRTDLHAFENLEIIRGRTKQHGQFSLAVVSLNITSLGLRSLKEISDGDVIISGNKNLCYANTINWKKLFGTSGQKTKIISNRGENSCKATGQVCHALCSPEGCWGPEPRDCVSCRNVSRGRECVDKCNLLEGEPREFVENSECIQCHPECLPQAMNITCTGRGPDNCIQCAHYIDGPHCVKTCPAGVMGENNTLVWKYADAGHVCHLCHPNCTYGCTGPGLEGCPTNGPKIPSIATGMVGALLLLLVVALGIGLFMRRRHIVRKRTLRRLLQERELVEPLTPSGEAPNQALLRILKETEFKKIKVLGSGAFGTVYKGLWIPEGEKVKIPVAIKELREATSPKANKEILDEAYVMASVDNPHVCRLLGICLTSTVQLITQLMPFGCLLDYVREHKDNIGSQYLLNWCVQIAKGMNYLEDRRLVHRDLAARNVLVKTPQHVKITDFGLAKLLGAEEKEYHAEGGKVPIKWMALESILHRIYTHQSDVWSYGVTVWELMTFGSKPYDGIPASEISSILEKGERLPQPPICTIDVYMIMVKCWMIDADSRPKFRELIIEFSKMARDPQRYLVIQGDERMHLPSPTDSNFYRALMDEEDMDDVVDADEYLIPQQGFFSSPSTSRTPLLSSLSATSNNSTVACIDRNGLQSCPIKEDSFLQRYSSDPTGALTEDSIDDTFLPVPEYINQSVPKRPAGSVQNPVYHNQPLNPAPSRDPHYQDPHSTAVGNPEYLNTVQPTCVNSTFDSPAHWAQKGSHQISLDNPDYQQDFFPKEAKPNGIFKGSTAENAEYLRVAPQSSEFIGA

[10] = Cytotoxicity against human UACC257 cells assessed as cell growth at 10 uM after 72 hrs by SRB assay relative to control; format: functional; details: UACC-257, 72 h, read-out: Activity
HT-29 = experiment: Cytotoxicity against human HT-29 cells assessed as cell growth at 10 uM after 72 hrs by SRB assay relative to control; format: functional; details: HT-29, 72 h, read-out: Activity
[11] = Cytotoxicity against human SW620 cells assessed as cell growth at 10 uM after 72 hrs by SRB assay relative to control; format: functional; details: SW-620, 72 h, read-out: Activity
[12] = Cytotoxicity against human HCC2998 cells assessed as cell growth at 10 uM after 72 hrs by SRB assay relative to control; format: functional; details: HCC 2998, 72 h, read-out: Activity
[13] = Cytotoxicity against human SNB19 cells assessed as cell growth at 10 uM after 72 hrs by SRB assay relative to control; format: functional; details: SNB-19, 72 h, read-out: Activity
K562 = experiment: Cytotoxicity against human K562 cells assessed as cell growth at 10 uM after 72 hrs by SRB assay relative to control; format: functional; details: K562, 72 h, read-out: Activity
ACHN [14] = experiment: Cytotoxicity against human ACHN cells assessed as cell growth at 10 uM after 72 hrs by SRB assay relative to control; format: functional; details: read-out: Activity
[15] = Cytotoxicity against human OVCAR5 cells assessed as cell growth at 10 uM after 72 hrs by SRB assay relative to control; format: functional; details: OVCAR-5, 72 h, read-out: Activity
MCF7 = experiment: Cytotoxicity against human MCF7 cells assessed as cell growth at 10 uM after 72 hrs by SRB assay relative to control; format: functional; details: MCF7, 72 h, read-out: Activity
[16] = Cytotoxicity against human RPMI8226 cells assessed as cell growth at 10 uM after 72 hrs by SRB assay relative to control; format: functional; details: RPMI-8226, 72 h, read-out: Activity
[17] = Cytotoxicity against human COLO205 cells assessed as cell growth at 10 uM after 72 hrs by SRB assay relative to control; format: functional; details: COLO 205, 72 h, read-out: Activity
[18] = Cytotoxicity against human HOP92 cells assessed as cell growth at 10 uM after 72 hrs by SRB assay relative to control; format: functional; details: HOP-92, 72 h, read-out: Activity
A549 = experiment: Cytotoxicity against human A549 cells after 72 hrs by SRB assay; format: functional, cell-based; details: A549, 72 h
ACHN [19] = experiment: Cytotoxicity against human ACHN cells after 72 hrs by SRB assay; format: functional
[20] = Cytotoxicity against human HOP62 cells after 72 hrs by SRB assay; format: functional; details: HOP-62, 72 h
[21] = Cytotoxicity against human COLO205 cells after 72 hrs by SRB assay; format: functional; details: COLO 205, 72 h
[22] = Cytotoxicity against human SNB75 cells after 72 hrs by SRB assay; format: functional; details: SNB-75, 72 h
NCI-H322M [23] = experiment: Cytotoxicity against human NCI-H322M cells after 72 hrs by SRB assay; format: functional
A498 [24] = experiment: Cytotoxicity against human A498 cells after 72 hrs by SRB assay; format: functional; details: A498, 72 h
Malme-3M = experiment: Cytotoxicity against human MALME-3M cells after 72 hrs by SRB assay; format: functional
[25] = Cytotoxicity against human DU145 cells after 72 hrs by SRB assay; format: functional; details: DU-145, 72 h
[26] = Cytotoxicity against human MOLT4 cells after 72 hrs by SRB assay; format: functional; details: MOLT-4, 72 h
NCI-H460 = experiment: Cytotoxicity against human NCI-H460 cells after 72 hrs by SRB assay; format: functional; details: NCI-H460, 72 h
T47D = experiment: Cytotoxicity against human T47D cells after 72 hrs by SRB assay; format: functional
[27] = Cytotoxicity against human SF539 cells after 72 hrs by SRB assay; format: functional; details: SF-539, 72 h
[28] = read-out: LC50 (the source's name)

Structure (SMILES): Cc1ccc2nc(Nc3ncnc4c3cnn4-c3ccccc3)sc2c1
- growth at 10 µM [1]: 104%
- growth at 10 µM (U-251): 103%
- growth at 10 µM [2]: 108%
- growth at 10 µM (NCI-H226): 101%
- growth at 10 µM [3]: 98.3%
- growth at 10 µM [4]: 91.7%
- growth at 10 µM [5]: 94.7%
- growth at 10 µM (NCI-H322M [6]): 45.7%
- growth at 10 µM [7]: 99.8%
- growth at 10 µM (A498 [8]): 66.4%
- inhibition [9]: inactive
- growth at 10 µM [10]: 112%
- growth at 10 µM (HT-29): 103%
- growth at 10 µM [11]: 100%
- growth at 10 µM [12]: 106%
- growth at 10 µM [13]: 98.2%
- growth at 10 µM (K562): 102%
- growth at 10 µM (ACHN [14]): 107%
- growth at 10 µM [15]: 96%
- growth at 10 µM (MCF7): 97.2%
- growth at 10 µM [16]: 102%
- growth at 10 µM [17]: 110%
- growth at 10 µM [18]: 97.5%

Structure (SMILES): O=c1sc2cc(Nc3ncnc4c3cnn4-c3ccccc3)ccc2n1Cc1ccc(Cl)cc1
- growth at 10 µM [1]: 87%
- growth at 10 µM (U-251): 96.6%
- growth at 10 µM [2]: 86.6%
- growth at 10 µM (NCI-H226): 71.4%
- growth at 10 µM [3]: 55.6%
- growth at 10 µM [4]: 50.7%
- growth at 10 µM [5]: 58.3%
- growth at 10 µM (NCI-H322M [6]): 75.7%
- growth at 10 µM [7]: 87.2%
- growth at 10 µM (A498 [8]): 59%
- growth at 10 µM [10]: 92.6%
- growth at 10 µM (HT-29): 106%
- growth at 10 µM [11]: 84.4%
- growth at 10 µM [13]: 85.6%
- growth at 10 µM (K562): 49.6%
- growth at 10 µM (ACHN [14]): 74.6%
- growth at 10 µM [15]: 75.1%
- growth at 10 µM (MCF7): 85.3%
- growth at 10 µM [16]: 63.5%
- growth at 10 µM [17]: 92.7%
- growth at 10 µM [18]: 64.4%

Structure (SMILES): c1ccc(COc2ccc(Nc3ncnc4c3cnn4-c3ccccc3)cc2)cc1
- growth at 10 µM [1]: 91.3%
- growth at 10 µM (U-251): 106%
- growth at 10 µM [2]: 113%
- growth at 10 µM (NCI-H226): 103%
- growth at 10 µM [3]: 88.5%
- growth at 10 µM [4]: 79.6%
- growth at 10 µM [5]: 93.3%
- growth at 10 µM (NCI-H322M [6]): 84.1%
- growth at 10 µM [7]: 107%
- growth at 10 µM (A498 [8]): 77.9%
- growth at 10 µM [10]: 121%
- growth at 10 µM (HT-29): 116%
- growth at 10 µM [11]: 98.7%
- growth at 10 µM [12]: 108%
- growth at 10 µM [13]: 96%
- growth at 10 µM (K562): 90.3%
- growth at 10 µM (ACHN [14]): 104%
- growth at 10 µM [15]: 98.9%
- growth at 10 µM (MCF7): 100%
- growth at 10 µM [16]: 96.5%
- growth at 10 µM [17]: 107%
- growth at 10 µM [18]: 98.8%

Structure (SMILES): O=C(NC1CCCCC1)c1ccc(Nc2ncnc3c2cnn3-c2ccccc2)cc1
- growth at 10 µM [1]: 30.3%
- growth at 10 µM (U-251): 40.2%
- growth at 10 µM [2]: 87.4%
- growth at 10 µM (NCI-H226): 19.1%
- GI50 (A549): 4.38 µM
- IC50 (A549): 66.6 µM
- LC50 (A549): > 100 µM
- TGI (A549): 51.3 µM
- GI50 (ACHN [19]): 3.32 µM
- TGI (ACHN [19]): 11 µM
- CC50 (ACHN [19]; [28]): 37 µM
- growth at 10 µM [3]: 53.3%
- growth at 10 µM [4]: 57.7%
- growth at 10 µM [5]: 63.9%
- growth at 10 µM (NCI-H322M [6]): 64%
- growth at 10 µM [7]: 73.4%
- growth at 10 µM (A498 [8]): 50.4%
- GI50 [20]: 2.62 µM
- TGI [20]: 8.78 µM
- CC50 [20, 28]: 37.3 µM
- growth at 10 µM [10]: 56.5%
- GI50 [21]: 12.5 µM
- TGI [21]: > 100 µM
- CC50 [21, 28]: > 100 µM
- growth at 10 µM (HT-29): 70.2%
- GI50 [22]: 1.71 µM
- TGI [22]: 5.4 µM
- CC50 [22, 28]: 35.9 µM
- growth at 10 µM [11]: 72.9%
- GI50 (NCI-H322M [23]): 15.8 µM
- TGI (NCI-H322M [23]): > 100 µM
- CC50 (NCI-H322M [23]; [28]): > 100 µM
- growth at 10 µM [13]: 48.7%
- growth at 10 µM (K562): 73.2%
- GI50 (A498 [24]): 3.83 µM
- TGI (A498 [24]): 39.4 µM
- CC50 (A498 [24]; [28]): > 100 µM
- growth at 10 µM (ACHN [14]): 54.3%
- growth at 10 µM [15]: 80.3%
- GI50 (Malme-3M): 1.97 µM
- TGI (Malme-3M): 4.94 µM
- CC50 (Malme-3M; [28]): 21 µM
- GI50 [25]: 10.6 µM
- TGI [25]: 48.1 µM
- CC50 [25, 28]: > 100 µM
- growth at 10 µM (MCF7): 82.8%
- growth at 10 µM [16]: 89.5%
- GI50 [26]: 75.6 µM
- TGI [26]: > 100 µM
- CC50 [26, 28]: > 100 µM
- GI50 (NCI-H460): 7.09 µM
- TGI (NCI-H460): > 100 µM
- CC50 (NCI-H460; [28]): > 100 µM
- GI50 (T47D): 20.2 µM
- TGI (T47D): > 100 µM
- CC50 (T47D; [28]): > 100 µM
- GI50 [27]: 3.81 µM
- TGI [27]: 17.1 µM
- CC50 [27, 28]: 49 µM
- growth at 10 µM [17]: 65.4%
- growth at 10 µM [18]: 37.7%

Structure (SMILES): Clc1ccc(-n2ncc3c(Nc4ccc(OCc5ccccc5)cc4)ncnc32)cc1
- growth at 10 µM [1]: 80.6%
- growth at 10 µM (U-251): 95%
- growth at 10 µM [2]: 102%
- growth at 10 µM (NCI-H226): 102%
- growth at 10 µM [3]: 86.1%
- growth at 10 µM [4]: 83.6%
- growth at 10 µM [5]: 105%
- growth at 10 µM (NCI-H322M [6]): 75%
- growth at 10 µM [7]: 97.8%
- growth at 10 µM (A498 [8]): 85.2%
- growth at 10 µM [10]: 102%
- growth at 10 µM (HT-29): 84.7%
- growth at 10 µM [11]: 101%
- growth at 10 µM [12]: 98%
- growth at 10 µM (K562): 87.3%
- growth at 10 µM (ACHN [14]): 98.6%
- growth at 10 µM [15]: 92.8%
- growth at 10 µM (MCF7): 95.9%
- growth at 10 µM [16]: 86.4%
- growth at 10 µM [17]: 91.2%
- growth at 10 µM [18]: 97.8%
